Results published in patent publication US20240410831A1, “Multi-Mode Zinc-Selective Emission-Ratiometric Fluorescent Probes for Biological Application” (Georgia Tech Research Corporation, priority 2023, published 2024).

Columns and labels:
[1] = tested on: live mouse fibroblast 3T3 cells; test: Ratiometric imaging of labile Zn(II) by TPEM (excitation at 750 nm); format: cell-based
Description: With reference to FIG. 7A, emission-ratiometric imaging of labile Zn(II) pools in live mouse fibroblast 3T3 cells with Formula I, Formula II, and/or a derivative thereof (e.g., for example probe 8) by TPEM (excitation at 750 nm). (A) of FIG. 7A Left: The emission was collected with 520 nm-600 nm (BP2) and 440 nm-495 nm (BP1) bandpass filters respectively. Right: Intensity ratio images with R=BP2/BP1. (B) of FIG. 7A Left: Ratio images (BP2/BP1) before (prior to t=5 min) and after the addition of 50 μM ZnSO4 and 5.0 μM pyrithione. Addition of TPEN at t=15 min resulted the reversal of the initial of fluorescence ratio change. (C) of FIG. 7A Mean fluorescence ratio of the cytoplasmic region averaged over 10 cells (P values calculated for n=10 using a two-tailed test). (D) of FIG. 7A Time course of the average ratio change for the mean fluorescence ratio in the cytosol averaged over 10 cells.
To evaluate the Zn(II)-dependent ratiometric response of Formula I and/or Formula IA (e.g., for example probe 8) in live cells, imaging experiments were performed with live mouse fibroblasts (3T3) as model cell line.
In various embodiments, mouse fibroblast (3T3) cells were grown on poly-L-lysine treated glass bottom culture dishes (MatTek) to 90% confluency in DMEM growth media supplemented with 10% bovine calf serum, and 1% penicillin-streptomycin. Before imaging, the media was replaced with pre-warmed colorless serum-free DMEM (1% penicillin-streptomycin, and 1% sodium pyruvate) containing 1.0 μM of probe 8. The cells were incubated at 37° C. under an atmosphere of humidified air containing 5% CO2 for 15 mins. The incubation solution was replaced with prewarmed colorless serum free DMEM. Images were acquired at 37° C., 8% humidity, and 5% CO2 using a Zeiss LSM NLO 710 microscope equipped with a femtosecond pulsed Ti:sapphire laser and a blue 405 nm laser. Scanning fluorescence micrographs were acquired with excitation at 405 nm or 750 nm and the emission was simultaneously collected with bandpass ranges of 495-440 nm (BP1) and 600-520 nm (BP2). Image J was used to evaluate the change in fluorescence emission ratio over time as previously described. The emission ratio for each region of interest was averaged at each time point.
TPEN solid was fully dissolved in anhydrous DMSO to a concentration of 3.0 mM. The stock solution was further diluted to 1.0 mM in pre-warmed phenol-red-free DMEM media before each imaging experiments. The ZnSO4 stock solution was prepared in DI H2O and the pyrithione stock solution was prepared in anhydrous DMSO to a concentration of 3.0 mM. The stock solution of Zn(II)/pyrithione was prepared and diluted with phenol red free DMEM. To determine the limiting emission intensity ratios Rmin and Rmax, mouse fibroblast cells were supplemented with Zn(II)-pyrithione (50 μM ZnSO4 and 5.0 μM pyrithione), and then TPEN (100 μM).

[2] = Molar ratio titration with Zn(OTf)2 in methanol (absorption and fluorescence); format: physicochemical; conditions: for fluorescence emission maximum: excitation at 395 nm
Description: To prevent solution aggregation of the charge-neutral compounds exemplified by Formula I, Formula II, and/or a derivative thereof (e.g., for example probe 8) in PIPES buffer, the initial solution characterization was conducted in analytical grade MeOH. […] Consistent with an increased ground- and excited state polarization upon Zn(II) complexation, the absorption maximum is red-shifted by 34 nm from 376 nm to 410 nm. Sharp isosbestic points at 306 nm and 395 nm, as well as saturation at an equimolar Zn(II) concentration are indicative of a well-defined solution equilibrium involving only the free probe 8 and a discrete Zn(II)-complex with 1:1 metal-ligand stoichiometry.
Similarly, the fluorescence emission maximum of Formula I, Formula II, and/or a derivative thereof (e.g., for example probe 8) is red-shifted from 460 nm to 513 nm upon Zn(II)-binding. […] To provide a direct comparison with previous probes, probe 8 was also analyzed in aqueous buffer containing DMPC/DMPG liposomes that mimic the lipid bilayers present in cells.
A solution of Formula I, Formula II, and/or a derivative thereof (e.g., for example probe 8) (10 μM) in analytical grade MeOH prepared in a quartz cuvette with a 1-cm pathlength was titrated with Zn(OTf)2 (from a 0.3 mM aqueous stock solution) in 1.0 μM (0.1 molar equiv.) increments. After each aliquot of Zn(II), the solution was equilibrated for 1 minute by magnetic stirring, and an absorbance (spectral window: 250-500 nm) and fluorescence spectrum (excitation at 395 nm, spectral window 405-705 nm) were acquired. In another embodiment, a solution of Formula I, Formula II, and/or a derivative thereof (e.g., for example probe 8 in FIG. 4H) (10 PM) in Chelex®-PIPES buffer (10 mM, 0.1 M KCl, pH 7.0, 25° C.) containing 100 μM of liposomes (4:1 mixture of DMPC and DMPG) prepared in a quartz cuvette with a 1-cm pathlength was titrated with Zn(OTf)2 (from a 0.3 mM aqueous stock solution) in 1.0 μM (0.1 molar equiv.) increments. After each aliquot of Zn(II), the solution was equilibrated for 1 minute by magnetic stirring, and a fluorescence spectrum (excitation: 405 nm, spectral window 420-700 nm) was acquired.

- red shift of absorption maximum upon Zn(II) complexation [2]: 34 nm
- absorption maximum ([2]; Zn(II) complex): 410 nm
- fluorescence emission maximum ([2]; Zn(II)-bound): 513 nm
- absorption maximum ([2]; free probe, 10 μM): 376 nm
- fluorescence emission maximum ([2]; free probe): 460 nm
Compound: COc1ccc2c(c1)C(C)(C)c1nc(-c3cccc(CN(Cc4ncccn4)Cc4ncccn4)n3)sc1-2 [probe 8]
- cellular uptake ([1]; 3T3 cells, TPEM): readily internalized
- average fluorescence ratio R (BP2/BP1) ([1]; after 50 μM ZnSO4 and 5.0 μM pyrithione, TPEM 750 nm): 1.35±0.16
- average fluorescence ratio R (BP2/BP1) ([1]; after TPEN, TPEM 750 nm): 0.59±0.05
- increase of fluorescence ratio ([1]; after Zn(II)/pyrithione against basal, TPEM 750 nm): more than 2 fold
- average fluorescence ratio R (BP2/BP1) ([1]; basal, 1.0 μM probe, TPEM 750 nm): 0.59±0.06
